Results: PubChem BioAssay AID1357 (Sanford-Burnham Center for Chemical Genomics, 2008)
Activity calls are given as the source filed them.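 Rule for the calls: active = no band for the stress protein CHOP on the immunoblot after the stress trigger, its induction blocked; inactive = CHOP band still seen after the stress trigger.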

tested on: CSM14.1 cells, thapsigargin-induced CHOP Western blot; assay: blocking ER stress CHOP protein upregulation – thapsigargin stimulus, CSM14.1 cells, Western blot, mechanism study for ER stress cell death inhibitors (AID 1357)

Q: `COc1ccc(C2CC(=O)C3=C(C2)Nc2ccccc2NC3c2cccc(Br)c2)cc1OC` (stereo unspecified) was tested. Which outcome did it give?
A: inactive

Q: How did the outcome turn out when `CC1(C)CC(=O)C2=C(C1)Nc1ccccc1NC2c1ccc(-c2ccccc2)cc1` (stereo unspecified) was run?
A: inactive

Q: With `O=C1CC(c2ccccc2)CC2=C1C(c1c(F)cccc1Cl)Nc1ccccc1N2` (stereo unspecified) as the compound, how does the outcome read?
A: inactive

Q: `CCOc1cc(C2Nc3ccccc3NC3=C2C(=O)CC(c2ccc(OC)cc2)C3)cc(Cl)c1O` (stereo unspecified) was tested. Which outcome did it give?
A: inactive

Q: How did the outcome turn out when `CSc1ccc(C2Nc3ccccc3NC3=C2C(=O)CC(c2ccccc2)C3)cc1` (stereo unspecified) was run?
A: inactive

Q: For `CCCOc1ccc(C2Nc3ccccc3NC3=C2C(=O)CC(c2ccc(OC)c(OC)c2)C3)cc1` (stereo unspecified), which outcome is on record?
A: inactive

Q: For `COc1ccc(C2CC(=O)C3=C(C2)Nc2ccccc2NC3c2cc(C)ccc2C)cc1` (stereo unspecified), which outcome is on record?
A: inactive

Q: `COc1ccc(C2CC(=O)C3=C(C2)Nc2ccccc2NC3c2cccc(C(F)(F)F)c2)cc1OC` (stereo unspecified) was tested. Which outcome did it give?
A: inactive

Q: How did the outcome turn out when `COc1ccc(C2CC(=O)C3=C(C2)Nc2ccccc2NC3c2cccc(Oc3ccccc3)c2)cc1OC` (stereo unspecified) was run?
A: inactive

Q: With `CCOc1cccc(C2Nc3ccccc3NC3=C2C(=O)CC(c2ccc(OC)cc2)C3)c1` (stereo unspecified) as the compound, how does the outcome read?
A: inactive

Q: With `COc1ccc(C2CC(=O)C3=C(C2)Nc2ccccc2NC3c2ccccc2C(F)(F)F)cc1OC` (stereo unspecified) as the compound, how does the outcome read?
A: inactive
